In patent US20130040935A1, “CYCLIC KETO-ENOLS FOR THERAPY” (BAYER INTELLECTUAL PROPERTY GMBH, priority 2010, published 2013):
pIC50: −log10 of the molar value. Like-named read-outs stand apart in the source and are kept apart here.

Assays:
[1] = target: human ACC2 (acetyl-coenzyme A carboxylase 2) (Homo sapiens, UniProt O00763); assay: Human ACC2 enzyme assay, Assay B2 (ADP-Glo);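 also: human ACC2 activity read as ADP product, detected by luciferase glow luminescence after residual ATP removal, enzyme near 2 ng/µl in linear range, detection steps at 22 °C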
[2] = system: malonyl-CoA in a tumour (human MCF-7 breast cancer cells); assay: Mode-of-action experiment: intratumour malonyl-CoA in MCF-7 tumours after oral administration; type: in vivo, female nude mice (NMRI-nude (nu/nu)); conditions: Mus musculus, MCF7, po; after 7 h, 10 mg/kg, vs Vehicle
Procedure: Mode-of-Action Experiment
Prior to the determination of the activity in the MCF-7 model, some of the test substances were examined in a “mode of action” experiment. The principle of this experiment is that short-term application of a test substance capable of inhibiting ACC1 and/or ACC2 in a living organism after oral administration reduces malonyl-CoA in a tumour. To this end, in the experiment 2 million human MCF-7 breast cancer cells were injected subcutaneously into female nude mice (NMRI-nude (nu/nu) mice, Taconic M&B A/S, 1 day beforehand administration of a pellet for the release of oestrogen over a period of at least 60 days). Once the tumour extended to an area of about 60-70 mm^2, the test substance was administered orally over a period of 1-3 days, and at defined points in time the intratumour content of malonyl-CoA was then determined and compared to the vehicle control. The method is described in Anal Chem 2008 Aug. 1; 80(15):5736-42. Epub 2008 Jul. 9.).

MCF7 = assay: Cell proliferation assay (CellTiter-Glo, 96 h), MCF7; type: cell-based; conditions: Homo sapiens
How it was run: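 CellTiter-Glo luminescence measured at t=0 (after overnight attachment) and after 96 h compound exposure at 37° C. Growth inhibition in percent calculated from t=0-corrected signals of treated versus untreated wells. Seeding density 2000-5000 cells/well, line-dependent.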

[3] = target: T1, human ACC1 (acetyl-coenzyme A carboxylase alpha transcript variant 1) (Homo sapiens, UniProt Q13085); assay: Human ACC1 enzyme assay, Assay B1 (ADP-Glo); type: biochemical
T1 construct: FLAG (C); made in house; host or cells: baculovirus-infected insect cells (Hi5)

recombinant human ACC1 = recombinant human ACC1 (Homo sapiens, UniProt Q13085); assay: Human ACC1 enzyme assay, Assay A1 (HTRF ADP immunoassay);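 also: ADP generated by the enzyme quantified via competitive time-resolved FRET, read as europium cryptate to d2 energy transfer after 1 h at 22 °C with labelled ADP tracer and anti-ADP antibody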
Procedure: The inhibitory activity of the substances of this invention with regard to acetyl-CoA carboxylase 1 (ACC1) was measured using the ACC1 assay described in the paragraphs below. The basic principle of the assay is the measurement of adenosine diphosphate (ADP), which is formed as a by-product, by means of an HTRF®-based competitive immunoassay (HTRF=Homogeneous Time Resolved Fluorescence).
Typical concentrations were in the range of 2.5 ng/μl.
The amount of complex between d2-labelled ADP and europium cryptate-labelled anti-ADP antibody was then determined by measuring the resonance energy transfer from the europium cryptate to d2.

[4] = target: acetyl-CoA carboxylase 2 (ACC2) (Homo sapiens, UniProt O00763); assay: Human ACC2 enzyme assay, Assay A2 (HTRF ADP immunoassay);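 also: ADP generated by ACC2 quantified via competitive time-resolved FRET between europium cryptate anti-ADP antibody and d2-tagged ADP, enzyme kept in linear range near 0.6 ng/µl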
Procedure: The inhibitory activity of the substances of this invention with regard to acetyl-CoA carboxylase 2 (ACC2) was measured using the ACC2 assay described in the paragraphs below. The basic principle of the assay is the measurement of adenosine diphosphate (ADP), which is formed as a by-product, by means of an HTRF®-based competitive immunoassay (HTRF=Homogeneous Time Resolved Fluorescence).
The amount of complex of d2-labelled ADP and europium cryptate-labelled anti-ADP antibody was then determined by measuring the resonance energy transfer of europium cryptate to d2.

[5] = MCF7, Table 7, 96-hour incubation
[6] = Assay B1, read-out: ACC 1 (=B1) IC50

human ACC2 (acetyl-coenzyme A carboxylase 2), sequence (O00763 27-2458 limits assumed): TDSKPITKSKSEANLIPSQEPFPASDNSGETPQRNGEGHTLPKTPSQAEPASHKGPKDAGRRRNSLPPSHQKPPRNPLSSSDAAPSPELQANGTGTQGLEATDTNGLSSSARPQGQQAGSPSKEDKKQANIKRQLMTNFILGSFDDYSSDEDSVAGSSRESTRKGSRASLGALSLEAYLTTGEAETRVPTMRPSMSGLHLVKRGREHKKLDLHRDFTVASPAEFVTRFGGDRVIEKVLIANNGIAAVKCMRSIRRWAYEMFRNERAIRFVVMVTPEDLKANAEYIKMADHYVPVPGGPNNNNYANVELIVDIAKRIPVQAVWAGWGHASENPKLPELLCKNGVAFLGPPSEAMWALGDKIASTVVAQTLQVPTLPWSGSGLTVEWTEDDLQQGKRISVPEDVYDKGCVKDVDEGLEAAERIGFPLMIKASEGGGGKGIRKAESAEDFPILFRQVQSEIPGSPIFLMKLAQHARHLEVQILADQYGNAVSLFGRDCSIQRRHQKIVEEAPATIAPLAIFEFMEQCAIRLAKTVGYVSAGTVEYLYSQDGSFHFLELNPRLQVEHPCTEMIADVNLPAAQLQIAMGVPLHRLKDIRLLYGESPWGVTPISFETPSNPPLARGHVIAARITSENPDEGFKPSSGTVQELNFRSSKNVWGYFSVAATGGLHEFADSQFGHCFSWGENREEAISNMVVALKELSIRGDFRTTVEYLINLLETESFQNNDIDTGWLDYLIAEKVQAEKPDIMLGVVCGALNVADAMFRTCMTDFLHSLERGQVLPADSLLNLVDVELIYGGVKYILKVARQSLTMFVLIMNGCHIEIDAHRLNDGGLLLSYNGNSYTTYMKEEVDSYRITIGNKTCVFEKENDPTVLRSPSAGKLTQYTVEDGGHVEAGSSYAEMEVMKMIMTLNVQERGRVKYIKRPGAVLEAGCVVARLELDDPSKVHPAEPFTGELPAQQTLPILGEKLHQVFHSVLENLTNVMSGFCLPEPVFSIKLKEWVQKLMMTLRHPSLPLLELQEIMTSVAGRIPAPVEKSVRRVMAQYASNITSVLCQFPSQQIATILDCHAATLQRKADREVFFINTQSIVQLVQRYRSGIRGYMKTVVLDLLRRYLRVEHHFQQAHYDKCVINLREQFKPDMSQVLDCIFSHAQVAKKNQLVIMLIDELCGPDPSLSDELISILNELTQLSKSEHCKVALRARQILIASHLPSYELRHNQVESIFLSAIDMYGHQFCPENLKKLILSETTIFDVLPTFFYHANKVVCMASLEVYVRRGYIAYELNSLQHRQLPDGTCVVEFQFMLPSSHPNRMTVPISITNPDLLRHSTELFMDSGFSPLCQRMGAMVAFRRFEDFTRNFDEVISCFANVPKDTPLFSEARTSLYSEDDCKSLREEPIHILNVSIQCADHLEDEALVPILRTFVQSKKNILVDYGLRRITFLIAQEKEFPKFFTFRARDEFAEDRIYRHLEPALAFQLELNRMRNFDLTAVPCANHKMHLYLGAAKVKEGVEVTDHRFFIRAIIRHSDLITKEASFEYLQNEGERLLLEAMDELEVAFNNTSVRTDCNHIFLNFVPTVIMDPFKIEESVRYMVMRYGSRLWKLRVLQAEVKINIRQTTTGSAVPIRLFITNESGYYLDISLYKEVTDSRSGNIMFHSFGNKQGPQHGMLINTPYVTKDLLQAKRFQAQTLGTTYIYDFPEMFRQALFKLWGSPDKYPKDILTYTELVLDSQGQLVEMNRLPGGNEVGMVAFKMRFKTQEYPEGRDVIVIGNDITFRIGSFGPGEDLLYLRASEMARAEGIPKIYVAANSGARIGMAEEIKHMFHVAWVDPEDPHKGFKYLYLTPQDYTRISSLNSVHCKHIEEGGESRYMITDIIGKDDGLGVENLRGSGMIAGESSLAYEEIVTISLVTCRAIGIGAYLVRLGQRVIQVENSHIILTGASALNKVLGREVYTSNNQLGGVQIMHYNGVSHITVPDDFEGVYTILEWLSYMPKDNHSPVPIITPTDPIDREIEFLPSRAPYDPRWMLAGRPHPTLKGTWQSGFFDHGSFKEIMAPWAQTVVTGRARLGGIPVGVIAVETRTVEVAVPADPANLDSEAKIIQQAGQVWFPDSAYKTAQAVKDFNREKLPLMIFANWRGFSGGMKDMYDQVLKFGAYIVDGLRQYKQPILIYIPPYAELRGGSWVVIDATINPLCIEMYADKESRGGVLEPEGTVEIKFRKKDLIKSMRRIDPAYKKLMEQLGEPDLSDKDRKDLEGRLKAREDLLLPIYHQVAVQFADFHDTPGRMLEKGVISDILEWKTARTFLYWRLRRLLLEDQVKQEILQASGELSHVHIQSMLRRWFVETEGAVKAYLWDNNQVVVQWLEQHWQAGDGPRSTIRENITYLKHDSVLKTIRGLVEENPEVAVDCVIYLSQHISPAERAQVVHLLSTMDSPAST
acetyl-CoA carboxylase 2 (ACC2), sequence (O00763 39-2458 limits assumed): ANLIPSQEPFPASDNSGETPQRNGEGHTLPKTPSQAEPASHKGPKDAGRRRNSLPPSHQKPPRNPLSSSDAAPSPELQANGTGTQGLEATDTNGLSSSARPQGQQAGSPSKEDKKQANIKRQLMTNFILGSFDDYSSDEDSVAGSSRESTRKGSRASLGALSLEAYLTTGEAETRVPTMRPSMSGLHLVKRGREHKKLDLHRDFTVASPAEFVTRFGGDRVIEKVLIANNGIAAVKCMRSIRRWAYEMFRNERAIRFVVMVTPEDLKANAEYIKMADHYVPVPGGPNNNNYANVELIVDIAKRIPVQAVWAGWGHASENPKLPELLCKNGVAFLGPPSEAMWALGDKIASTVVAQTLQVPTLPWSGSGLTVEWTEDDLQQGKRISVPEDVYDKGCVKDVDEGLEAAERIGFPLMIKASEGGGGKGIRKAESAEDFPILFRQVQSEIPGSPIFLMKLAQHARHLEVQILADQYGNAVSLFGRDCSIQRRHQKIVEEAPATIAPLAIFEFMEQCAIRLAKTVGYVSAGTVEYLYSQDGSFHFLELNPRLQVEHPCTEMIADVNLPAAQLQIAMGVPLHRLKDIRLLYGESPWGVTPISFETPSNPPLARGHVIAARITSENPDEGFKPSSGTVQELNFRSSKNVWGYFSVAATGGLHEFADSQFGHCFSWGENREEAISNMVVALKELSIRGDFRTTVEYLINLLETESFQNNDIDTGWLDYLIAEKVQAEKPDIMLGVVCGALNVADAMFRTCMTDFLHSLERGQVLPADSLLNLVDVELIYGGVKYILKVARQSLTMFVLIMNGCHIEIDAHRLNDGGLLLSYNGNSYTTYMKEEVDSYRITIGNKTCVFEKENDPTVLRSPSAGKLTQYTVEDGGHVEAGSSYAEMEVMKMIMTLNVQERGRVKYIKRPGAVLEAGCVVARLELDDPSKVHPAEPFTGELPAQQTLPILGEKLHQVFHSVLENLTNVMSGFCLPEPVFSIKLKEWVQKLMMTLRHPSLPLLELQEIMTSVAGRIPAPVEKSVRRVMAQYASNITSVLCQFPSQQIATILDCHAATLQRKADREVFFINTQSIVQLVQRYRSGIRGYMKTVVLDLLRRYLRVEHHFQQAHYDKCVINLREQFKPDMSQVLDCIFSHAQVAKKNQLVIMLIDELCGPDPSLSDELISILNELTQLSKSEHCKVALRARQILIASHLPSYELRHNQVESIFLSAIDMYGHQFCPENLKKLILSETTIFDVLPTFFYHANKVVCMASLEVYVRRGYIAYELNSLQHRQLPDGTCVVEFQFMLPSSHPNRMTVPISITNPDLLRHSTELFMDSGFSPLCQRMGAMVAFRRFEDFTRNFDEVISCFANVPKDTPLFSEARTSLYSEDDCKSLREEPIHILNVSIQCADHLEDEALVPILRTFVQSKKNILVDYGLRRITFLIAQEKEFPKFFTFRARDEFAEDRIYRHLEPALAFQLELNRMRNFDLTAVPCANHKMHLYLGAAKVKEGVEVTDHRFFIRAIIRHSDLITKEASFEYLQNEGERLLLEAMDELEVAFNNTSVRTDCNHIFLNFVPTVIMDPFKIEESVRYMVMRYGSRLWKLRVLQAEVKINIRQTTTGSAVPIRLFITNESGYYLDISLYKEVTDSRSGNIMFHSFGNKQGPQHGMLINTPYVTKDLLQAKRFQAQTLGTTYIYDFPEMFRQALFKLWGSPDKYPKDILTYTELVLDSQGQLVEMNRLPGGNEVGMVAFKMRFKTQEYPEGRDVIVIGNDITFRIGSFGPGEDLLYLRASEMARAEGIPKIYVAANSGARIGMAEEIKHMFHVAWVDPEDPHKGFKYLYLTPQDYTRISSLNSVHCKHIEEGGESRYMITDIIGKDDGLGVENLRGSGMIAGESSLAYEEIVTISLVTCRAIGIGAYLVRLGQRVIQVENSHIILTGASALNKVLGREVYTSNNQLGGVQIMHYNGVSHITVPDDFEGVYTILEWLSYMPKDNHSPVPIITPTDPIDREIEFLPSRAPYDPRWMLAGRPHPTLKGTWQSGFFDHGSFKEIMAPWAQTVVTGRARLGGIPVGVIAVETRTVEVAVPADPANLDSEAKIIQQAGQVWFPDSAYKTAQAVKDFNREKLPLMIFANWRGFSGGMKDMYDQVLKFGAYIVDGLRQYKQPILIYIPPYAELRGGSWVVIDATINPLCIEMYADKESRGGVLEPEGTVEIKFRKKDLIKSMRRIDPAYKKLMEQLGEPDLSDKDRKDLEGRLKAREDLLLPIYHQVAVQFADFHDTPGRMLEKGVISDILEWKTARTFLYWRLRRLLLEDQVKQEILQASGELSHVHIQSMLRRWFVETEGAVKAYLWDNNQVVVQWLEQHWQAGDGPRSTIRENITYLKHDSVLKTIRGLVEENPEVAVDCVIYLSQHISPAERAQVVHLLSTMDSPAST

## CO[C@H]1CC[C@]2(CC1)NC(=O)C(c1cc(-c3ccc(Cl)cc3)ccc1C)=C2O [1-2, (5s,8s)-3-(4′-chloro-4-methylbiphenyl-3-yl)-4-hydroxy-8-methoxy-1-azaspiro[4.5]dec-3-en-2-one]
[1]
  pIC50: 6.09
[2]
  inhibition in vivo at 10 mg/kg: 96%
MCF7; [5]
  pIC50: 7.24

## Cc1ccc(-c2ccc(Cl)cc2)cc1C1=C(O)C2(CCCOC2)NC1=O (stereo not shown) [1-5, 3-(4′-chloro-4-methylbiphenyl-3-yl)-4-hydroxy-7-oxa-1-azaspiro[4.5]dec-3-en-2-one]
[1]
  pIC50: 4.96
[2]
  inhibition in vivo at 10 mg/kg: 82%
MCF7; [5]
  pIC50: 6.64
[3]; [6]
  pIC50: 6.61

## COC1CCC2(CC1)NC(=O)C(c1cc(-c3ccc(Cl)cc3)c(C)cc1C)=C2O (stereo not shown) [1-7, 3-(4′-chloro-4,6-dimethylbiphenyl-3-yl)-4-hydroxy-8-methoxy-1-azaspiro[4.5]dec-3-en-2-one]
[1]
  pIC50: 6.48
[2]
  inhibition in vivo at 10 mg/kg: 89%
MCF7; [5]
  pIC50: 7.24
[3]
  pIC50: 5.84

## COC1CCC2(CC1)NC(=O)C(c1cc(-c3ccc(Cl)cc3)ccc1Cl)=C2O (stereo not shown) [1-11, 3-(4,4′-dichlorobiphenyl-3-yl)-4-hydroxy-8-methoxy-1-azaspiro[4.5]dec-3-en-2-one]
[1]
  pIC50: 5.35
[2]
  inhibition in vivo at 10 mg/kg: 87%
MCF7; [5]
  pIC50: 6.91
[3]
  pIC50: 6.80

## Cc1ccc(-c2ccc(Cl)cc2)cc1C1=C(O)C2(CCC(C)(C)CC2)NC1=O [1-20, 3-(4′-chloro-4-methylbiphenyl-3-yl)-4-hydroxy-8,8-dimethyl-1-azaspiro[4.5]dec-3-en-2-one]
[1]
  pIC50: 5.95
[2]
  inhibition in vivo at 10 mg/kg: 87%
MCF7; [5]
  pIC50: 7.40
[3]; [6]
  pIC50: 6.64

## Cc1ccc(-c2ccc(Cl)cc2)cc1C1=C(O)C2(CCC(C(C)C)CC2)NC1=O (stereo not shown) [1-24, 3-(4′-chloro-4-methylbiphenyl-3-yl)-4-hydroxy-8-(propan-2-yl)-1-azaspiro[4.5]dec-3-en-2-one]
[1]
  pIC50: 6.29
[2]
  inhibition in vivo at 10 mg/kg: 91%
MCF7; [5]
  pIC50: 7.57
[3]; [6]
  pIC50: 6.64

## Cc1ccc(-c2ccc(Cl)cc2)cc1C1=C(O)[C@]2(CC[C@H](C)CC2)NC1=O [1-76, 3-(4′-chloro-4-methylbiphenyl-3-yl)-4-hydroxy-8-methyl-1-azaspiro[4.5]dec-3-en-2-one]
[1]
  pIC50: 6.36
[2]
  inhibition in vivo at 10 mg/kg: 96%
[3]; [6]
  pIC50: 6.79

## Cc1ccc(-c2ccc(Cl)cc2)cc1C1=C(O)[C@@]2(CCC[C@H](C(F)(F)F)C2)NC1=O [1-133, (5S,7S)-3 (4′-Chloro-4 methylbiphenyl-3-yl)-4-hydroxy-7-(trifluoromethyl)-1-azaspiro[4.5]dec-3-en-2-one]
[1]
  pIC50: 5.09
Recombinant human ACC1
  pIC50: 6.48
MCF7; [5]
  pIC50: 7.12
[4]
  pIC50: 5.54
[3]; [6]
  pIC50: 6.85

## O=C1N[C@]2(CC[C@@H](C(F)(F)F)CC2)C(O)=C1c1cc(-c2ccc(Cl)cc2)ccc1Cl [1-134, (5s,8s)-3-(4,4′-Dichlorobiphenyl-3-yl)-4-hydroxy-8 (trifluoromethyl)-1-azaspiro[4.5]dec-3-en-2-one]
[1]
  pIC50: 5.55
Recombinant human ACC1
  pIC50: 6.52
MCF7; [5]
  pIC50: 6.94
[4]
  pIC50: 5.88
[3]; [6]
  pIC50: 6.96

## CO[C@H]1CC[C@]2(CC1)NC(=O)C(c1cc(-c3ccc(Cl)cc3)c(F)cc1C)=C2O [1-135, (5s,8s)-3-(4′-Chloro 6 fluoro 4-methylbiphenyl-3-yl)-4-hydroxy-8-methoxy-1-azaspiro[4.5]dec-3-en-2-one]
[1]
  pIC50: 5.76
Recombinant human ACC1
  pIC50: 6.66
MCF7; [5]
  pIC50: 6.77
[4]
  pIC50: 6.18
[3]
  pIC50: 7.03

## CO[C@H]1CC[C@]2(CC1)NC(=O)C(c1cc(-c3ccc(F)c(F)c3)ccc1C)=C2O [1-136, (5s,8s)-3-(3′,4′-Difluoro-4-methylbiphenyl-3-yl)-4-hydroxy-8-methoxy-1-azaspiro[4.5]dec-3-en-2-one]
[1]
  pIC50: 4.90
Recombinant human ACC1
  pIC50: 6.62
MCF7; [5]
  pIC50: 6.81
[4]
  pIC50: 5.19
[3]
  pIC50: 6.63

## O=C1N[C@]2(CCC[C@H](C(F)(F)F)C2)C(O)=C1c1cc(-c2ccc(Cl)cc2)ccc1Cl [1-137, (5S,7S)-3-(4,4′-Dichlorobiphenyl-3-yl)-4-hydroxy-7-(trifluoromethyl)-1-azaspiro[4.5]dec-3-en-2-one]
[1]
  pIC50: 5.13
Recombinant human ACC1
  pIC50: 6.51
MCF7; [5]
  pIC50: 6.36
[4]
  pIC50: 5.11
[3]
  pIC50: 6.77

## CC1(C)CCC2(CC1)NC(=O)C(c1cc(-c3ccc(Cl)cc3)ccc1Cl)=C2O [1-138, 3-(4,4′-Dichlorobiphenyl-3-yl)-4-hydroxy-8,8-dimethyl-1-azaspiro[4.5]dec-3-en-2-one]
[1]
  pIC50: 5.66
Recombinant human ACC1
  pIC50: 6.58
MCF7; [5]
  pIC50: 7.27
[4]
  pIC50: 6.20
[3]
  pIC50: 6.76

## CC1CCC2(CC1)NC(=O)C(c1cc(-c3ccc(Cl)cc3)ccc1Cl)=C2O (stereo not shown) [1-139, 3-(4,4′-Dichlorobiphenyl-3-yl)-4-hydroxy-8-methyl-1-azaspiro[4.5]dec-3-en-2-one]
[1]
  pIC50: 5.34
Recombinant human ACC1
  pIC50: 6.55
MCF7; [5]
  pIC50: 7.15
[4]
  pIC50: 6.22
[3]
  pIC50: 6.82

## CC(C)[C@H]1CC[C@]2(CC1)NC(=O)C(c1cc(-c3ccc(Cl)cc3)ccc1Cl)=C2O [1-141, (5s,8s)-3-(4,4′-Dichlorobiphenyl-3-yl)-4-hydroxy-8-isopropyl-1-azaspiro[4.5]dec-3-en-2-one]
[1]
  pIC50: 5.86
Recombinant human ACC1
  pIC50: 6.61
MCF7; [5]
  pIC50: 7.10
[4]
  pIC50: 6.20
[3]
  pIC50: 6.79

## CO[C@H]1CC[C@]2(CC1)NC(=O)C(c1cc(-c3ccc(Cl)cc3F)ccc1C)=C2O [1-142, (5s,8s)-3-(4′-Chloro-2′-fluoro-4-methylbiphenyl-3-yl)-4-hydroxy-8-methoxy-1-azaspiro[4.5]dec-3-en-2-one]
[1]
  pIC50: 6.02
Recombinant human ACC1
  pIC50: 6.47
MCF7; [5]
  pIC50: 6.97
[4]
  pIC50: 6.26
[3]
  pIC50: 6.15

## CO[C@H]1CC[C@]2(CC1)NC(=O)C(c1cc(-c3ccc(Cl)cc3Cl)ccc1C)=C2O [1-143, (5s,8s)-3-(2′,4′-Dichloro-4-methylbiphenyl-3-yl)-4-hydroxy-8-methoxy-1-azaspiro[4.5]dec-3-en-2-one]
[1]
  pIC50: 5.67
Recombinant human ACC1
  pIC50: 6.55
MCF7; [5]
  pIC50: 6.95
[4]
  pIC50: 5.99
[3]
  pIC50: 6.79

## CCO[C@H]1CC[C@]2(CC1)NC(=O)C(c1cc(-c3ccc(Cl)cc3)ccc1C)=C2O [1-146, (5s,8s)-3-(4′-Chloro-4 methylbiphenyl-3-yl)-8-ethoxy-4-hydroxy-1-azaspiro[4.5]dec-3-en-2-one]
[1]
  pIC50: 6.17
Recombinant human ACC1
  pIC50: 6.71
MCF7; [5]
  pIC50: 7.33
[4]
  pIC50: 6.34
[3]; [6]
  pIC50: 6.94

## CCO[C@H]1CC[C@@]2(CC1)NC(=O)C(c1cc(-c3ccc(Cl)cc3)ccc1C)=C2O [1-147, (5r,8r)-3-(4′-Chloro-4 methylbiphenyl-3-yl)-8-ethoxy-4-hydroxy-1-azaspiro[4.5]dec-3-en-2-one]
[1]
  pIC50: 5.69
Recombinant human ACC1
  pIC50: 6.71
MCF7; [5]
  pIC50: 6.76
[4]
  pIC50: 5.90
[3]; [6]
  pIC50: 6.82

## CCCOC1CCC2(CC1)OC(=O)C(c1cc(-c3ccc(Cl)cc3)c(C)cc1C)=C2O (stereo not shown) [2-47, 3-(4′-chloro-4,6-dimethylbiphenyl-3-yl)-4-hydroxy-8-propoxy-1-oxaspiro[4.5]dec-3-en-2-one]
[1]
  pIC50: 6.41
Recombinant human ACC1
  pIC50: 6.23
MCF7; MCF7 cells
  pIC50: 6.52
[4]
  pIC50: 6.34
[3]; Assay B1, ADP-Glo, read-out: ACC 1 (=B1) IC50
  pIC50: 6.40
